# Reference: patent US12383545B1, “Treatment of migraine” (priority 2018, dated 2025)
# System: patients with migraine (4 to 14 migraine/probable migraine headache days)
# Assay: Example 5: randomized double-blind placebo-controlled 12-week dose-regimen study (QD and BID), migraine/probable migraine (MPM) headache days efficacy
# Type: in vivo, human
# Conditions: mITT population
# Experimental: In a multicenter, randomized, double-blind, placebo-controlled, parallel-group study designed to evaluate the efficacy, safety, and tolerability of multiple doses and doses regimens of atogepant for the prevention of migraine. The patients were randomized (2:1:2:1:2:1) to 1 of 6 treatment groups: placebo, atogepant 10 mg QD, atogepant 30 mg QD, atogepant 30 mg BID, atogepant 60 mg QD, and atogepant 60 mg BID.
# This study consisted of a 4-week screening and baseline period and a 12-week double-blind treatment period, which was followed by a 4-week safety follow-up period. Total study duration is 20-weeks.
# To be randomized, eligible patients had to be 18 to 75 years of age (inclusive), have a history of migraine with or without aura for at least 1 year consistent with a diagnosis according to the International Classification of Headache Disorders criteria, 3rd edition, beta version, have experienced 4 to 14 migraine/probable migraine headache days and <15 headache days in the 28-day baseline period. Patients who had clinically significant hematologic, endocrine, cardiovascular, cerebrovascular, pulmonary, renal, hepatic, gastrointestinal, or neurologic disease were excluded from the study.
# A total of 834 patients were randomized to double-blind treatment (ITT population), and 825 patients took at least 1 dose of double-blind IP (safety population). […] The primary efficacy variable was the change from baseline in mean monthly migraine/probable migraine headache days across the 12-week treatment period. The secondary efficacy variables were the change from baseline in mean monthly headache days across the 12-week treatment period, proportion of patients with at least a 50% reduction in mean monthly migraine/probable migraine headache days across the 12-week treatment period, and the change from baseline in mean monthly acute medication use days across the 12-week treatment period.
# [1] = Weeks 1-4, Atogepant 60 mg BID (N = 87)
# [2] = Weeks 1-4, Atogepant 60 mg QD (N = 177)
# [3] = Weeks 5-8, Atogepant 10 mg QD (N = 92)
# [4] = Weeks 5-8, Atogepant 30 mg BID (N = 79)
# [5] = Weeks 5-8, Atogepant 30 mg QD (N = 182)
# [6] = Weeks 5-8, Atogepant 60 mg BID (N = 87)
# [7] = Weeks 5-8, Atogepant 60 mg QD (N = 177)
# [8] = Weeks 9-12, Atogepant 10 mg QD (N = 92)
# [9] = Weeks 9-12, Atogepant 30 mg BID (N = 79)
# [10] = Weeks 9-12, Atogepant 30 mg QD (N = 182)
# [11] = Weeks 9-12, Atogepant 60 mg BID (N = 87)
# [12] = Weeks 9-12, Atogepant 60 mg QD (N = 177)
structure (smiles),measurement,setting,value
C[C@@H]1[C@H](c2c(F)ccc(F)c2F)C[C@H](NC(=O)c2cnc3c(c2)C[C@@]2(C3)C(=O)Nc3ncccc32)C(=O)N1CC(F)(F)F [atogepant],"Non-responders (at least 100% reduction in mean monthly MPM headache days not met), (%)",[1],(79.3) %
same,"Non-responders (at least 100% reduction in mean monthly MPM headache days not met), n",[1],69
same,"Odds ratio vs. Placebo, at least 100% reduction in mean monthly MPM headache days",[1],7.43
same,"Responders (at least 100% reduction in mean monthly MPM headache days), (%)",[1],(20.7) %
same,"Responders (at least 100% reduction in mean monthly MPM headache days), n",[1],18
same,"Non-responders (at least 100% reduction in mean monthly MPM headache days not met), (%)",[2],(85.2) %
same,"Non-responders (at least 100% reduction in mean monthly MPM headache days not met), n",[2],150
same,"Odds ratio vs. Placebo, at least 100% reduction in mean monthly MPM headache days",[2],4.94
same,"Responders (at least 100% reduction in mean monthly MPM headache days), (%)",[2],(14.8) %
same,"Responders (at least 100% reduction in mean monthly MPM headache days), n",[2],26
same,"Non-responders (at least 100% reduction in mean monthly MPM headache days not met), (%)",[3],(79.1) %
same,"Non-responders (at least 100% reduction in mean monthly MPM headache days not met), n",[3],68
same,"Odds ratio vs. Placebo, at least 100% reduction in mean monthly MPM headache days",[3],2.34
same,"Responders (at least 100% reduction in mean monthly MPM headache days), (%)",[3],(20.9) %
same,"Responders (at least 100% reduction in mean monthly MPM headache days), n",[3],18
same,"Non-responders (at least 100% reduction in mean monthly MPM headache days not met), (%)",[4],(80.3) %
same,"Non-responders (at least 100% reduction in mean monthly MPM headache days not met), n",[4],57
same,"Odds ratio vs. Placebo, at least 100% reduction in mean monthly MPM headache days",[4],2.26
same,"Responders (at least 100% reduction in mean monthly MPM headache days), (%)",[4],(19.7) %
same,"Responders (at least 100% reduction in mean monthly MPM headache days), n",[4],14
same,"Non-responders (at least 100% reduction in mean monthly MPM headache days not met), (%)",[5],(73.3) %
same,"Non-responders (at least 100% reduction in mean monthly MPM headache days not met), n",[5],121
same,"Odds ratio vs. Placebo, at least 100% reduction in mean monthly MPM headache days",[5],3.26
same,"Responders (at least 100% reduction in mean monthly MPM headache days), (%)",[5],(26.7) %
same,"Responders (at least 100% reduction in mean monthly MPM headache days), n",[5],44
same,"Non-responders (at least 100% reduction in mean monthly MPM headache days not met), (%)",[6],(73.8) %
same,"Non-responders (at least 100% reduction in mean monthly MPM headache days not met), n",[6],59
same,"Odds ratio vs. Placebo, at least 100% reduction in mean monthly MPM headache days",[6],3.25
same,"Responders (at least 100% reduction in mean monthly MPM headache days), (%)",[6],(26.3) %
same,"Responders (at least 100% reduction in mean monthly MPM headache days), n",[6],21
same,"Non-responders (at least 100% reduction in mean monthly MPM headache days not met), (%)",[7],(79.9) %
same,"Non-responders (at least 100% reduction in mean monthly MPM headache days not met), n",[7],135
same,"Odds ratio vs. Placebo, at least 100% reduction in mean monthly MPM headache days",[7],2.31
same,"Responders (at least 100% reduction in mean monthly MPM headache days), (%)",[7],(20.1) %
same,"Responders (at least 100% reduction in mean monthly MPM headache days), n",[7],34
same,"Non-responders (at least 100% reduction in mean monthly MPM headache days not met), (%)",[8],(79.8) %
same,"Non-responders (at least 100% reduction in mean monthly MPM headache days not met), n",[8],67
same,"Odds ratio vs. Placebo, at least 100% reduction in mean monthly MPM headache days",[8],1.43
same,"Responders (at least 100% reduction in mean monthly MPM headache days), (%)",[8],(20.02) %
same,"Responders (at least 100% reduction in mean monthly MPM headache days), n",[8],17
same,"Non-responders (at least 100% reduction in mean monthly MPM headache days not met), (%)",[9],(71.0) %
same,"Non-responders (at least 100% reduction in mean monthly MPM headache days not met), n",[9],49
same,"Odds ratio vs. Placebo, at least 100% reduction in mean monthly MPM headache days",[9],2.42
same,"Responders (at least 100% reduction in mean monthly MPM headache days), (%)",[9],(29.0) %
same,"Responders (at least 100% reduction in mean monthly MPM headache days), n",[9],20
same,"Non-responders (at least 100% reduction in mean monthly MPM headache days not met), (%)",[10],(77.0) %
same,"Non-responders (at least 100% reduction in mean monthly MPM headache days not met), n",[10],117
same,"Odds ratio vs. Placebo, at least 100% reduction in mean monthly MPM headache days",[10],1.72
same,"Responders (at least 100% reduction in mean monthly MPM headache days), (%)",[10],(23.0) %
same,"Responders (at least 100% reduction in mean monthly MPM headache days), n",[10],35
same,"Non-responders (at least 100% reduction in mean monthly MPM headache days not met), (%)",[11],(67.6) %
same,"Non-responders (at least 100% reduction in mean monthly MPM headache days not met), n",[11],48
same,"Odds ratio vs. Placebo, at least 100% reduction in mean monthly MPM headache days",[11],2.59
same,"Responders (at least 100% reduction in mean monthly MPM headache days), (%)",[11],(32.4) %
same,"Responders (at least 100% reduction in mean monthly MPM headache days), n",[11],23
same,"Non-responders (at least 100% reduction in mean monthly MPM headache days not met), (%)",[12],(73.2) %
same,"Non-responders (at least 100% reduction in mean monthly MPM headache days not met), n",[12],120
same,"Odds ratio vs. Placebo, at least 100% reduction in mean monthly MPM headache days",[12],2.07
same,"Responders (at least 100% reduction in mean monthly MPM headache days), (%)",[12],(26.8) %
same,"Responders (at least 100% reduction in mean monthly MPM headache days), n",[12],44
